From patent publication US9095535B2, “GABA release-regulating agent in cerebellum” (KOREA INSTITUTE OF SCIENCE AND TECHNOLOGY, priority 2009, dated 2015)

Columns and labels:
[1] = target: T1, Best1 channel (Mus musculus, UniProt O88870); format: cell-based; settings: NPPB and NFA at 100 μM; inward current in GABAc sensor cell
T1 construct: mBest1 full-length fragment from pGEM-T easy plasmid (6.65 kb, Promega) was subcloned into pcDNA 3.1; expressed in transfected cells; host or cells: HEK293T (ATCC)
T1 sequence (O88870 1-551 R255K): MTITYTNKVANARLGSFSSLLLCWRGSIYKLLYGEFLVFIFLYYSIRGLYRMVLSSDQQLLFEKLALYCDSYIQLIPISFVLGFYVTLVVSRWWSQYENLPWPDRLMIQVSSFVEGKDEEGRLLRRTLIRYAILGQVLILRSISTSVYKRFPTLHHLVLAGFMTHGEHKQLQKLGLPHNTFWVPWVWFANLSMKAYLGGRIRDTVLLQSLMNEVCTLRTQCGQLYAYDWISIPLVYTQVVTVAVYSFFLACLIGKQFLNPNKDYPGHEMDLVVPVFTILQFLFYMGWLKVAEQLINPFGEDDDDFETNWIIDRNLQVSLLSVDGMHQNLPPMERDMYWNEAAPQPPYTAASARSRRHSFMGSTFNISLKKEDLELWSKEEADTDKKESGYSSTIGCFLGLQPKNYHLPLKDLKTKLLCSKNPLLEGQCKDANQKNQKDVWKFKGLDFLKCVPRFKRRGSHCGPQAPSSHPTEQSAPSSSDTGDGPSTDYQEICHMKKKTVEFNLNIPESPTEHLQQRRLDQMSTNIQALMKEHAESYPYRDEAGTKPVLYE
Description: For Best1 channel to mediate release of GABA, it has to permeate GABA upon channel opening. To test for GABA permeability of Best1 channel, a two-cell sniffer patch technique was developed to directly measure GABA release via Best1 channel in sensor HEK293T cells that express GABAc, and via other channels that are expressed in source HEK293T cells (FIG. 1b).
pIRES-Best1-dsRED plasmid (obtained by cloning Best1 using pIRES-dsRED (Invitrogen)) and GABAc with GFP (obtained by cloning GABAc using pcDNA3.1 (Invitrogen)) were transfected into HEK 293T cells (ATCC) using Effectene transfection reagent (Qiagen). […]
GABA release was induced by a break-though of membrane patch that goes into a whole-cell configuration in the source cell and such the released GABA was monitored and detected by a neighboring sensor cell. Full activation of GABA current was obtained by bath application of 100 μM GABA and the percentage of full activation was calculated (FIGS. 1c and 1d).
Permeated GABA is detected in sensor as an inward current (bottom traces). […] The GABA permeability of said mutant was determined by using cells obtained by transfecting said mutant into HEK293t cell (ATCC). […] The GABA permeability of said AN01 was determined by using cells obtained by transfecting said mutant into HEK293t cell (ACTT).

[2] = tested on: cerebellar granule cells; assay: Clomeleon imaging of [Cl−]i in cerebellar granule cells (tonic GABA release); format: cell-based, mouse; settings: bath application of 10 μM
Description: B6 wildtype, GFAP-GFP and hGFAP-CreERT2 trangenic mice (SPF room, Center for Neural Science, KIST, Seoul, Korea) were anaesthetized by intraperitoneal injection of 2% avertin (20 μl/g, sigma) and placed in a stereotaxic frame (David Kopf instrument). pSicoR-b1shRNA-mCherry or scrambled virus (Macrogen) was stereo-injected into cerebellar cortex at a rate of 0.2 μl/min (total 2 μl) using syringe pump (Harvard apparatus) and 25 μl syringe (Hamilton company). The coordination of injection site was 1.7 mm from the lambda and the depth was 1.5-1.7 mm from the skull. […]
Clomeleon, based on fluorescence resonance energy transfer (FRET), is a genetically-encoded fluorescent indicator for Cl^− in which chloride-sensitive yellow fluroscent protein fused with chloride-insensitive cyan fluorescent protein via a flexible peptide linker (Kuner and Augustine, 2000). […]
For imaging, two ROIs (Regions of Interest) covering the granule cell layer and the molecular layer were drawn. […] Fluorescence excitation was produced by two consecutive 200 to 500 ms long light pulses at 0.5 Hz and fluorescence emission was alternately collected at each wavelength with a back-illuminated, cooled CCD camera with the on-chip multiplication gain control (Cascade 512B, Photometrics). […]

- GABA release via Best1 [1]: completely abolished
SMILES: O=C(O)c1cc([N+](=O)[O-])ccc1NCCCc1ccccc1 [NPPB, 5-nitro-2(3-phenylpropylamino)-benzoic acid]
- [Cl−]i in granular cell bodies and parallel fibers [2]: decreased
